Legend:
Test in all cases: relative viability (nuclei count vs DMSO), 5 days (fraction); higher = more cells survive
[1] = test system: NCI-H1651
How it was run: (§1)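 For relative viability, nuclei counts in treated wells were divided by those in vehicle wells. Lung cancer cell lines had been pin-tool dosed in 1536-well plates the day after seeding and cultured for 5 days, then fixed and stained in one step (final 0.05% Triton X-100, 1% formaldehyde, 1 ug/ml Hoechst) and imaged at 4×. Doses were one drug alone or a fixed anchor-drug dose plus five library-drug doses (not always all listed) in √10 steps, and values are duplicate-plate medians.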

[2] = test system: NCI-H1792
How it was run: as §1

[3] = test system: NCI-H1915
How it was run: as §1

[4] = test system: NCI-H2023
How it was run: as §1

[5] = test system: NCI-H322M
How it was run: as §1

[6] = test system: NCI-H358
How it was run: as §1

[7] = test system: NCI-H460
How it was run: as §1

[8] = test system: NCI-H520
How it was run: as §1

[9] = test system: NCI-H596
How it was run: as §1

[10] = test system: NCI-H647
How it was run: as §1

[11] = test system: SK-MES-1
How it was run: as §1

[12] = test system: SW 900
How it was run: as §1

Oc1nc(-c2ccc(C(F)(F)F)cc2)nc2c1CSCC2 [XAV939] + Cc1nc(Nc2ncc(C(=O)Nc3c(C)cccc3Cl)s2)cc(N2CCN(CCO)CC2)n1 [Dasatinib] (partner 0.075 µM)
relative viability ([1]; first compound 0.8 µM): 0.362 | relative viability ([1]; first compound 2.53 µM): 0.401 | relative viability ([2]; first compound 0.08 µM): 0.877 | relative viability ([2]; first compound 0.253 µM): 0.809 | relative viability ([2]; first compound 0.8 µM): 0.87 | relative viability ([2]; first compound 2.53 µM): 0.725 | relative viability ([3]; first compound 0.08 µM): 0.353 | relative viability ([3]; first compound 0.253 µM): 0.214 | relative viability ([3]; first compound 0.8 µM): 0.311 | relative viability ([3]; first compound 2.53 µM): 0.298 | relative viability ([4]; first compound 0.08 µM): 0.512 | relative viability ([4]; first compound 0.253 µM): 0.397 | relative viability ([4]; first compound 0.8 µM): 0.334 | relative viability ([4]; first compound 2.53 µM): 0.336 | relative viability ([5]; first compound 0.08 µM): 0.241 | relative viability ([5]; first compound 0.253 µM): 0.254 | relative viability ([5]; first compound 0.8 µM): 0.227 | relative viability ([5]; first compound 2.53 µM): 0.22 | relative viability ([6]; first compound 0.08 µM): 0.16 | relative viability ([6]; first compound 0.253 µM): 0.166 | relative viability ([6]; first compound 0.8 µM): 0.175 | relative viability ([6]; first compound 2.53 µM): 0.172 | relative viability ([7]; first compound 0.08 µM): 0.479 | relative viability ([7]; first compound 0.253 µM): 0.533 | relative viability ([7]; first compound 0.8 µM): 0.482 | relative viability ([7]; first compound 2.53 µM): 0.467 | relative viability ([8]; first compound 0.08 µM): 0.179 | relative viability ([8]; first compound 0.253 µM): 0.17 | relative viability ([8]; first compound 0.8 µM): 0.152 | relative viability ([8]; first compound 2.53 µM): 0.193 | relative viability ([9]; first compound 0.08 µM): 0.584 | relative viability ([9]; first compound 0.253 µM): 0.549 | relative viability ([9]; first compound 0.8 µM): 0.708 | relative viability ([9]; first compound 2.53 µM): 0.563 | relative viability ([10]; first compound 0.08 µM): 0.164 | relative viability ([10]; first compound 0.253 µM): 0.207 | relative viability ([10]; first compound 0.8 µM): 0.201 | relative viability ([10]; first compound 2.53 µM): 0.147 | relative viability ([11]; first compound 0.08 µM): 0.339 | relative viability ([11]; first compound 0.253 µM): 0.344 | relative viability ([11]; first compound 0.8 µM): 0.392 | relative viability ([11]; first compound 2.53 µM): 0.284 | relative viability ([12]; first compound 0.08 µM): 0.545 | relative viability ([12]; first compound 0.253 µM): 0.463 | relative viability ([12]; first compound 0.8 µM): 0.51 | relative viability ([12]; first compound 2.53 µM): 0.435

Reference: the supplement of paper PMC10307832
